Data published in patent US20260199499A1, “ANTI-PDL1 ANTIBODY-DRUG CONJUGATE AND USE” (SHANGHAI HENLIUS BIOTECH, INC., priority 2023, published 2026).

What was measured:
[1] = tested on: human PDL1-positive cervical cancer LD1-0010-200614 PDX; assay: Anti-tumor effect, LD1-0010-200614 PDX xenograft; assay type: in vivo, Balb/c nude mice; settings: free loaded drug, dose not given, day 35
Experimental: (§1) A human-derived PDL1-positive cervical cancer LD1-0010-200614 model was revived in Balb/c nude mice. Once the tumor had grown to 500-800 mm^3, the tumor tissue was surgically aseptically excised, and non-tumor tissues and necrotic tissues were removed. The tumor tissue was stripped and evenly cut into tissue blocks (about 25-35 mg) of about 3 mm×3 mm×3 mm in size, and then, which were inoculated subcutaneously on the right side of Balb/c nude mice. Once the average tumor volume of the mice for grouping reached 146.74 mm3, the mice were grouped randomly according to the size of the tumor volume, ensuring similar tumor volumes between groups. The day of grouping was defined as day 0. After the start of dosing, the body weight and tumor size of the mice were measured twice a week, and the mice were dosed once a week, for three doses. Clinical symptoms observed during the experiment were recorded. The tumor volume was calculated according to the following formula: tumor volume (mm3)=½×(a×b2) (wherein a represented the long diameter, and b represented the short diameter).

[2] = tested on: human PDL1-positive gastric cancer LD1-0017-200636 PDX; assay: Anti-tumor effect, LD1-0017-200636 PDX xenograft; assay type: in vivo, NU/NU mice; settings: free loaded drug, dose not given, day 21
Experimental: as §1, with “gastric” for “cervical”, “LD1-0017-200636” for “LD1-0010-200614”, “NU/NU” for “Balb/c nude”, “30-60” for “25-35”, “138.70” for “146.74”

[3] = tested on: human PDL1-positive colorectal cancer LD1-2013-362125 PDX; assay: Anti-tumor effect, LD1-2013-362125 PDX xenograft; assay type: in vivo, NU/NU mice; settings: free loaded drug, dose not given, day 31
Experimental: as §1, with “colorectal” for “cervical”, “LD1-2013-362125” for “LD1-0010-200614”, “NU/NU” for “Balb/c nude”, “156.99” for “146.74”

human dendritic cells = assay type: cell-based
Experimental: (§2) Since some human immune cells such as antigen-presenting cells (macrophages, dendritic cells, etc.) express PDL1, the immunotoxicity of PDL1-targeted antibody-conjugated drugs is an inevitable problem. Human dendritic cells and macrophages, after induced differentiation, were digested and viable cells were counted using Vi-Cell XR cytometer. The cell suspension was adjusted to an appropriate concentration with a culture medium. 80 μl/well of the cell suspension was added to a cell culture plate, which was supplemented with 500 IU/mL of IFN-γ. The test drug was diluted with a gradient (5-fold dilutions). 20 μl of each of the diluted test articles was taken and added to the cell suspension in the cell culture plate, and the cell culture plate was placed in an incubator and cultured for 96 hours. 50 μl/well of a CellTiter-Glo solution (purchased from Promega) that had been thawed in advance and equilibrated to room temperature was added according to CellTiter-Glo operation instructions. The wells were mixed uniformly with a microwell plate shaker for 2 minutes and maintained at room temperature for 10 minutes. The […] signal was measured using Envision 2104 plate reader. SGN-PDL1V was used as one of the control molecules and was disclosed in U.S. Patent No. US 20210101982 A1.

human macrophages = assay type: cell-based
Experimental: as §2

[4] = tested on: human non-small cell lung cancer LU6437 PDX; assay: Anti-tumor effect, LU6437 PDX xenograft; assay type: in vivo, BALB/c nude mice; settings: 3 mg/kg, once a week for three doses, day 21
Experimental: A revived tumor tissue was harvested from HuPrime® lung cancer xenograft model LU6437 tumor-bearing mice and cut into tumor blocks with a diameter of 2-3 mm, which were inoculated subcutaneously at the right anterior scapula of BALB/c nude mice. […] The average volume was 253.70 mm^3 in the actual groups. The day of grouping was defined as day 0. After the start of dosing, the mice were dosed once a week, for three doses, and the body weight and tumor size of the mice were measured twice a week. Clinical symptoms observed during the experiment were recorded. The tumor volume was calculated according to the following formula: tumor volume (mm3)=½×(a×b2) (wherein a represented the long diameter, and b represented the short diameter).

[5] = Preliminary pre-experiment, toxicity to mice; assay type: in vivo; settings: dose of 8 mg/kg
Excerpt: For ethical considerations, the […] was not set in the experimental design.

[6] = biological target: T1, PDL1 on PDL1-positive cells NCI-H292 and NCI-H441 (UniProt Q9NZQ7 19-290, limits assumed); assay: flow cytometry on NCI-H292 cells, goat anti-human IgG detection
T1 construct: whole, on cells; Human tumor cell lines; also called CD274; B7-H1
T1 sequence (Q9NZQ7 19-290 limits assumed): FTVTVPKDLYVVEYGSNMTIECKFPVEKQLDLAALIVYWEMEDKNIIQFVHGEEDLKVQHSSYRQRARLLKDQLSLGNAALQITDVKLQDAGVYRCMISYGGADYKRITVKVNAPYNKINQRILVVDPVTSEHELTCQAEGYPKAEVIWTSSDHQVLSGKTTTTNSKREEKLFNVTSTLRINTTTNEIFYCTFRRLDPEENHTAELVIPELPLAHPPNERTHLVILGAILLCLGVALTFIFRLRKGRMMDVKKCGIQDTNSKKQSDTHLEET

Work on `CC[C@@]1(O)C(=O)OCc2c1cc1n(c2=O)Cc2c-1nc1cc3c(cc1c2CCCO)OCO3` [A1.3, (S)-7-ethyl-7-hydroxy-14-(3-hydroxypropyl)-10,13-dihydro-11H-[1,3]dioxolo[4,5-g]pyrano[3′,4′,6,7]indolizino[1,2-b]quinoline-8,11(7H)-dione] yielded a TGI [1] of 56.5%, a TGI [2] of 34.12% and a TGI [3] of 37.16%.

In the case of “SGN-PDL1V: reference ADC of WO 2021067776 A1: SGN-PDL1V antibody moiety conjugated to MC-VC-PABC-MMAE [reference compound]”, the “concentration at which non-specific killing resulted” value (human dendritic cells) is reported as “above 20 nM”, the “concentration at which non-specific killing resulted” value (human macrophages) is reported as “above 20 nM” and the TGI [4] is reported as 24.11%. The toxicity to mice [5] was “severely lethal toxicity”.

B1: MAB20 (antibody, human IgG1, lambda, N297A, V domains shown)
VH: EVQLVQSGGGLVKPGGSLRLSCAASGFTFSSYTMNWVRQAPGKGLEWVSSISSGSDYLYYADSVKGRFTISRDNAKNSLYLQMNSLRAEDTAVYYCARNELRWYPQAGAFDRWGQGTMVTVSS
VL: QSVVTQPPSMSAAPGQRVTISCSGSSSYIESSYVGWYQQLPGTAPRLLIYDDDMRPSGIPDRFSGSKSGTSATLAITGLQTGDEADYYCEIWRSGLGGVFGGGTKLTVLS
notes: also called anti-PDL1 antibody MAB20; Anti-PDL1_mAb
B1: binds [6].
